From PubChem BioAssay (NCI)
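How tested: cells in 96-well plates exposed to compound for 48 hours at five concentrations. At the TGI there is no net growth.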

Assays:
Assay in all cases: inhibition of tumour cell growth, NCI panel, 48 h
[1] = test system: 786-0 renal
[2] = test system: BT-549 breast
[3] = test system: DU-145 prostate
[4] = test system: HCT-116 colon
[5] = test system: HCT-15 colon
[6] = test system: HL-60(TB) leukemia
[7] = test system: IGROV1 ovarian
[8] = test system: M14 melanoma
[9] = test system: MALME-3M melanoma
[10] = test system: NCI/ADR-RES ovarian
[11] = test system: OVCAR-4 ovarian
[12] = test system: OVCAR-8 ovarian
[13] = test system: PC-3 prostate
[14] = test system: RPMI-8226 leukemia
[15] = test system: T-47D breast
[16] = test system: TK-10 renal
[17] = test system: U251 CNS
[18] = test system: UACC-257 melanoma
[19] = test system: UACC-62 melanoma
[20] = test system: SNB-75 CNS

Compound | TGI [1] [µM] | TGI [2] [µM] | TGI [3] [µM] | TGI [4] [µM] | TGI [5] [µM] | TGI [6] [µM] | TGI [7] [µM] | TGI [8] [µM] | TGI [9] [µM] | TGI [10] [µM] | TGI [11] [µM] | TGI [12] [µM] | TGI [13] [µM] | TGI [14] [µM] | TGI [15] [µM] | TGI [16] [µM] | TGI [17] [µM] | TGI [18] [µM] | TGI [19] [µM] | TGI [20] [µM]
OB1OCc2ccccc21 | > 100 | > 100 | > 100 | > 100 | > 100 | > 100 | > 100 | > 100 | > 100 | 57.9 | 92.8 | > 100 | 64.4 | 45.9 | > 100 | > 100 | > 100 | > 100 | > 100 | –
O=c1[nH]/c(=C/c2ccc(OCc3ccccc3)cn2)c(=O)[nH]/c1=C/c1cccnc1 | > 100 | > 100 | 2.08 | > 100 | – | 0.541 | – | > 22.8 | > 27.6 | 1.33 | > 61.5 | > 100 | > 100 | – | > 100 | > 100 | > 100 | > 100 | – | 36.8
CCOC(=O)C1C(=O)C=C(c2cc(C)ccc2O)CC1c1cccc(Br)c1 (stereo not drawn) | 39.8 | 72.7 | > 100 | 40.7 | 10.4 | 44.2 | 39.5 | 37 | 42.4 | 46.1 | 5.17 | 92.7 | 40.4 | 33.8 | 72 | 42.1 | 32 | 38 | 28 | –
C=C(Cl)C(Cl)(CBr)CCC(Cl)C(C)C (stereo not drawn) | 4.26 | 27.9 | 3.77 | 5.96 | 22.1 | – | 30.8 | 42.6 | 28.4 | 29.3 | 25.4 | > 100 | 5.8 | – | 0.411 | 3.12 | 1.88 | 6.02 | 14 | 5.66
O=C(CSCC(=O)N/N=C\c1cc(Br)cc(Br)c1O)N/N=C\c1cc(Br)cc(Br)c1O | > 100 | > 100 | > 100 | > 100 | > 100 | – | 66.2 | 34.8 | 42.5 | > 100 | > 100 | 68 | > 100 | – | > 100 | 71.8 | 22.3 | 62 | 39.7 | > 100
c1ccc(C2(c3cc4ccccc4[nH]3)OCCO2)cc1 | > 100 | > 100 | > 100 | > 100 | > 100 | – | > 100 | > 100 | – | > 100 | > 100 | > 100 | > 100 | > 100 | > 100 | > 100 | > 100 | 99.8 | > 100 | > 100
O=C(C(Cl)=C(Nc1ccccc1)Nc1ccccc1)C(Cl)Cl | 69.1 | > 100 | > 100 | 60.2 | 34.1 | 51.9 | > 100 | 43.8 | 45 | > 100 | > 100 | 42.8 | > 100 | 78.9 | 75.9 | > 100 | – | > 100 | 54.1 | –
C=CC(C)(C)c1cc([C@@H]2COc3cc(O)ccc3C2=O)c(O)c(OC)c1OC | 31.9 | 25.1 | 30.3 | 24.5 | 32.8 | 44.2 | – | 31.2 | 43.2 | 43 | 19.7 | 54.3 | 34.8 | – | 35.2 | > 100 | 26.8 | 44.9 | 27.5 | 25.6
COc1ccc2[nH]c3c(C)c4ccnc(NCCCN(C)CCCNC(=O)NCCCN(C)CCCNc5nccc6c(C)c7[nH]c8ccc(OC)cc8c7c(C)c56)c4c(C)c3c2c1 | 1.2 | 4.99 | > 10.9 | 5.48 | > 17.6 | 1.2 | 2.05 | 1.33 | – | > 50 | 7.83 | – | 2.79 | > 14.5 | 2.29 | > 50 | – | > 14.3 | > 11.6 | 1.56
COCN1C(=O)[C@@H]2C[C@@H](OC/C=C/CBr)CN2C(=O)c2ccccc21 | 53.9 | > 100 | 43.9 | 42.7 | 56.2 | > 100 | 26.5 | 42.9 | 35.3 | > 100 | 35.7 | 34 | 51.8 | – | 59 | 49.7 | 74.8 | 37.6 | 71.5 | 27.9
Cc1[nH]c(=O)nc2c1C(=O)N(C(C)C)C(NC(C)C)S2 (stereo not drawn) | > 100 | – | > 100 | > 100 | > 100 | > 100 | > 100 | > 100 | > 100 | > 100 | > 100 | > 100 | > 100 | > 100 | > 100 | > 100 | > 100 | > 100 | > 100 | > 100
COc1cc(NS(C)(=O)=O)ccc1N1Cc2cnc3ccc4[nH]ccc1c4c23 | > 100 | > 100 | > 100 | > 100 | > 100 | > 100 | > 100 | > 100 | – | > 100 | > 100 | > 100 | > 100 | 46.8 | 83.6 | > 100 | > 100 | > 100 | > 100 | –
N#Cc1ccc(/C=C2\Cc3ccccc3C2=O)cc1 | > 100 | > 100 | > 100 | > 100 | > 100 | > 100 | – | > 100 | – | – | > 100 | > 100 | > 100 | > 100 | > 100 | > 100 | – | > 100 | > 100 | > 100
